“Also recorded” adds a separate entry of the source.
Columns and labels:
Format in all cases: cell-based
E. coli O157:H7 [1] = assay: E. coli O157:H7 counts in water containing rumen content or feces treated with chemicals or chemical combinations; conditions: for E. coli O157:H7 counts (log10 cfu/ml) at min 0 / E. coli O157:H7 counts (log10 cfu/ml) at min 2 / E. coli O157:H7 counts (log10 cfu/ml) at min 5 / E. coli O157:H7 counts (log10 cfu/ml) at min 10 / E. coli O157:H7 counts (log10 cfu/ml) at min 20 / E. coli O157:H7 counts (log10 cfu/ml) at min 30 / E. coli O157:H7 counts (log10 cfu/ml) at min 60 / E. coli O157:H7 counts (log10 cfu/ml) at min 120: 21° C.; for E. coli O157:H7 counts (log10 cfu/ml) at min 0: 0 min; for E. coli O157:H7 counts (log10 cfu/ml) at min 2: 2 min; for E. coli O157:H7 counts (log10 cfu/ml) at min 5: 5 min; for E. coli O157:H7 counts (log10 cfu/ml) at min 10: 10 min; for E. coli O157:H7 counts (log10 cfu/ml) at min 20: 20 min; for E. coli O157:H7 counts (log10 cfu/ml) at min 30: 30 min; for E. coli O157:H7 counts (log10 cfu/ml) at min 60: 60 min; for E. coli O157:H7 counts (log10 cfu/ml) at min 120: 120 min
E. coli O26:H11 = E. coli O26:H11 counts in water containing rumen content or feces treated with chemical combinations; conditions: 21° C.; for E. coli O26:H11 counts (log10 cfu/ml) at min: 0: 0 min; for E. coli O26:H11 counts (log10 cfu/ml) at min: 2: 2 min; for E. coli O26:H11 counts (log10 cfu/ml) at min: 5: 5 min; for E. coli O26:H11 counts (log10 cfu/ml) at min: 10: 10 min; for E. coli O26:H11 counts (log10 cfu/ml) at min: 20: 20 min; for E. coli O26:H11 counts (log10 cfu/ml) at min: 30: 30 min; for E. coli O26:H11 counts (log10 cfu/ml) at min: 60: 60 min; for E. coli O26:H11 counts (log10 cfu/ml) at min: 120: 120 min
E. coli O111:NM = E. coli O111:NM counts in water containing rumen content or feces treated with chemical combinations; conditions: 21° C.; for E. coli O111:NM counts (log10 cfu/ml) at min 0: 0 min; for E. coli O111:NM counts (log10 cfu/ml) at min 2: 2 min; for E. coli O111:NM counts (log10 cfu/ml) at min 5: 5 min; for E. coli O111:NM counts (log10 cfu/ml) at min 10: 10 min; for E. coli O111:NM counts (log10 cfu/ml) at min 20: 20 min; for E. coli O111:NM counts (log10 cfu/ml) at min 30: 30 min; for E. coli O111:NM counts (log10 cfu/ml) at min 60: 60 min; for E. coli O111:NM counts (log10 cfu/ml) at min 120: 120 min
E. coli O157:H7 [2] = assay: E. coli O157:H7 counts in water with rumen content treated with ozone; conditions: for E. coli O157:H7 (log10 cfu/ml) at min: 0: 0 min; for E. coli O157:H7 (log10 cfu/ml) at min: 1: 1 min; for E. coli O157:H7 (log10 cfu/ml) at min: 2: 2 min; for E. coli O157:H7 (log10 cfu/ml) at min: 5: 5 min; for E. coli O157:H7 (log10 cfu/ml) at min: 10: 10 min; for E. coli O157:H7 (log10 cfu/ml) at min: 20: 20 min
Description: Ozone was produced by an laboratory scale ozone generator (Model H-50, Hess Machine International, Ephrata, Pa.) equipped with an oxygen concentrator (Model AS-12, AirSep, Buffalo, N.Y.) and ozone concentrations (ppm) were measured by the indigo calorimeter method. Ozonated (22-24 ppm at 5° C.) water was mixed with rumen content at ratios of 100:1, 50:1, 25:1, 10:1, and 5:1. MilliQ water (Milli-Q Synthesis A10, Millipore Corp. Brillerica, Mass.) was used as the control. One ml of a mixture of 5 strains of E. coli O157:H7 (10^8 cfu) was mixed with 199 ml of the ozonated water with rumen content at 5° C. and sampled from 0 to 20 min. At each sampling time, 1 ml was removed, and immediately mixed with 9 ml of neutralizing buffer and serially (1:10) diluted and a volume of 0.1 ml from each dilution tube was plated on SMA-NA and TSA-NA plates in duplicate. Plates were incubated at 37° C. for 24 h. Presumptive E. coli O157:H7 colonies were counted and confirmed according to the method described above. All studies were done in duplicate.

[3] = water containing feces (20:1, v/w)
[4] = water containing rumen content (10:1, v/w)
[5] = 22-24 ppm ozone, Ozonated water only (no rumen content), 5° C.
[6] = 22-24 ppm ozone, water:rumen content 20:1, 5° C.
[7] = 22-24 ppm ozone, water:rumen content 50:1, 5° C.
[8] = 22-24 ppm ozone, water:rumen content 100:1, 5° C.
[9] = 22-24 ppm ozone, water:rumen content 200:1, 5° C.

## CCCCCCCC(=O)O [0.05% caprylic acid, caprylic acid]
E. coli O157:H7 [1]; butyric acid >2%, caprylic acid >0.1%, data not shown
  inactivation of E. coli O157:H7 within 20 minutes: substantial inactivation
E. coli O157:H7 [1]; [3]
  E. coli O157:H7 counts (log10 cfu/ml) at min 0: 6.0 log10 cfu/ml
  E. coli O157:H7 counts (log10 cfu/ml) at min 2: 5.6 log10 cfu/ml
  E. coli O157:H7 counts (log10 cfu/ml) at min 5: 4.3 log10 cfu/ml
  E. coli O157:H7 counts (log10 cfu/ml) at min 10: 2.3 log10 cfu/ml
  E. coli O157:H7 counts (log10 cfu/ml) at min 20: 2.0 log10 cfu/ml
  E. coli O157:H7 counts (log10 cfu/ml) at min 30: 2.0 log10 cfu/ml
  E. coli O157:H7 counts (log10 cfu/ml) at min 60: 2.0 log10 cfu/ml
  E. coli O157:H7 counts (log10 cfu/ml) at min 120: 1.7 log10 cfu/ml
E. coli O157:H7 [1]; [4]
  E. coli O157:H7 counts (log10 cfu/ml) at min 0: 6.0 log10 cfu/ml
  E. coli O157:H7 counts (log10 cfu/ml) at min 2: 6.0 log10 cfu/ml
  E. coli O157:H7 counts (log10 cfu/ml) at min 5: 6.0 log10 cfu/ml
  E. coli O157:H7 counts (log10 cfu/ml) at min 10: 5.9 log10 cfu/ml
  E. coli O157:H7 counts (log10 cfu/ml) at min 20: 6.0 log10 cfu/ml
  E. coli O157:H7 counts (log10 cfu/ml) at min 30: 5.9 log10 cfu/ml
  E. coli O157:H7 counts (log10 cfu/ml) at min 60: 5.9 log10 cfu/ml
  E. coli O157:H7 counts (log10 cfu/ml) at min 120: 6.0 log10 cfu/ml
E. coli O26:H11; [3]
  E. coli O26:H11 counts (log10 cfu/ml) at min: 0: 5.5 log10 cfu/ml
  E. coli O26:H11 counts (log10 cfu/ml) at min: 2: 5.4 log10 cfu/ml
  E. coli O26:H11 counts (log10 cfu/ml) at min: 5: 5.5 log10 cfu/ml
  E. coli O26:H11 counts (log10 cfu/ml) at min: 10: 5.5 log10 cfu/ml
  E. coli O26:H11 counts (log10 cfu/ml) at min: 20: 5.3 log10 cfu/ml
  E. coli O26:H11 counts (log10 cfu/ml) at min: 30: 5.2 log10 cfu/ml
  E. coli O26:H11 counts (log10 cfu/ml) at min: 60: 5.2 log10 cfu/ml
  E. coli O26:H11 counts (log10 cfu/ml) at min: 120: 5.0 log10 cfu/ml
E. coli O26:H11; [4]
  E. coli O26:H11 counts (log10 cfu/ml) at min: 0: 5.3 log10 cfu/ml
  E. coli O26:H11 counts (log10 cfu/ml) at min: 2: 5.4 log10 cfu/ml
  E. coli O26:H11 counts (log10 cfu/ml) at min: 5: 5.2 log10 cfu/ml
  E. coli O26:H11 counts (log10 cfu/ml) at min: 10: 5.4 log10 cfu/ml
  E. coli O26:H11 counts (log10 cfu/ml) at min: 20: 5.3 log10 cfu/ml
  E. coli O26:H11 counts (log10 cfu/ml) at min: 30: 5.4 log10 cfu/ml
  E. coli O26:H11 counts (log10 cfu/ml) at min: 60: 5.4 log10 cfu/ml
  E. coli O26:H11 counts (log10 cfu/ml) at min: 120: 5.4 log10 cfu/ml
E. coli O111:NM; [3]
  E. coli O111:NM counts (log10 cfu/ml) at min 0: 5.7 log10 cfu/ml
  E. coli O111:NM counts (log10 cfu/ml) at min 2: 5.5 log10 cfu/ml
  E. coli O111:NM counts (log10 cfu/ml) at min 5: 5.7 log10 cfu/ml
  E. coli O111:NM counts (log10 cfu/ml) at min 10: 5.5 log10 cfu/ml
  E. coli O111:NM counts (log10 cfu/ml) at min 20: 5.6 log10 cfu/ml
  E. coli O111:NM counts (log10 cfu/ml) at min 30: 5.7 log10 cfu/ml
  E. coli O111:NM counts (log10 cfu/ml) at min 60: 5.5 log10 cfu/ml
  E. coli O111:NM counts (log10 cfu/ml) at min 120: 5.4 log10 cfu/ml
E. coli O111:NM; [4]
  E. coli O111:NM counts (log10 cfu/ml) at min 0: 5.6 log10 cfu/ml
  E. coli O111:NM counts (log10 cfu/ml) at min 2: 5.5 log10 cfu/ml
  E. coli O111:NM counts (log10 cfu/ml) at min 5: 5.7 log10 cfu/ml
  E. coli O111:NM counts (log10 cfu/ml) at min 10: 5.5 log10 cfu/ml
  E. coli O111:NM counts (log10 cfu/ml) at min 20: 5.8 log10 cfu/ml
  E. coli O111:NM counts (log10 cfu/ml) at min 30: 5.6 log10 cfu/ml
  E. coli O111:NM counts (log10 cfu/ml) at min 60: 5.4 log10 cfu/ml
  E. coli O111:NM counts (log10 cfu/ml) at min 120: 5.5 log10 cfu/ml

## O=[O+][O-] [ozone]
E. coli O157:H7 [2]; 22-24 ppm ozone, 5° C., water with no rumen content, direct plating
  killing of 10^6-10^7 E. coli O157:H7/ml: undetectable level
E. coli O157:H7 [2]; 22-24 ppm ozone, 50 parts water to 1 part rumen content
  E. coli O157:H7 inactivation: Little to no E. coli O157:H7 inactivation
E. coli O157:H7 [2]; 22-24 ppm ozone, 100 parts water to 1 part rumen content or more
  effect of rumen content on antimicrobial activity of ozone: neutralized; also recorded: greatly decreased the antimicrobial activity
E. coli O157:H7 [2]; [5]
  E. coli O157:H7 (log10 cfu/ml) at min: 0: <1.7 log10 cfu/ml
  E. coli O157:H7 (log10 cfu/ml) at min: 1: <1.7 log10 cfu/ml
  E. coli O157:H7 (log10 cfu/ml) at min: 2: <1.7 log10 cfu/ml
  E. coli O157:H7 (log10 cfu/ml) at min: 5: <1.7 log10 cfu/ml
  E. coli O157:H7 (log10 cfu/ml) at min: 10: <1.7 log10 cfu/ml
  E. coli O157:H7 (log10 cfu/ml) at min: 20: <1.7 log10 cfu/ml
E. coli O157:H7 [2]; [6]
  E. coli O157:H7 (log10 cfu/ml) at min: 0: 5.6 log10 cfu/ml
  E. coli O157:H7 (log10 cfu/ml) at min: 1: 5.2 log10 cfu/ml
  E. coli O157:H7 (log10 cfu/ml) at min: 2: 5.1 log10 cfu/ml
  E. coli O157:H7 (log10 cfu/ml) at min: 5: 5.1 log10 cfu/ml
  E. coli O157:H7 (log10 cfu/ml) at min: 10: 5.4 log10 cfu/ml
  E. coli O157:H7 (log10 cfu/ml) at min: 20: 5.2 log10 cfu/ml
E. coli O157:H7 [2]; [7]
  E. coli O157:H7 (log10 cfu/ml) at min: 0: 6.2 log10 cfu/ml
  E. coli O157:H7 (log10 cfu/ml) at min: 1: 6.2 log10 cfu/ml
  E. coli O157:H7 (log10 cfu/ml) at min: 2: 6.4 log10 cfu/ml
  E. coli O157:H7 (log10 cfu/ml) at min: 5: 6.4 log10 cfu/ml
  E. coli O157:H7 (log10 cfu/ml) at min: 10: 6.5 log10 cfu/ml
  E. coli O157:H7 (log10 cfu/ml) at min: 20: 6.3 log10 cfu/ml
E. coli O157:H7 [2]; [8]
  E. coli O157:H7 (log10 cfu/ml) at min: 0: 5.2 log10 cfu/ml
  E. coli O157:H7 (log10 cfu/ml) at min: 1: 5.4 log10 cfu/ml
  E. coli O157:H7 (log10 cfu/ml) at min: 2: 5.5 log10 cfu/ml
  E. coli O157:H7 (log10 cfu/ml) at min: 5: 5.2 log10 cfu/ml
  E. coli O157:H7 (log10 cfu/ml) at min: 10: 4.5 log10 cfu/ml
  E. coli O157:H7 (log10 cfu/ml) at min: 20: 4.8 log10 cfu/ml
E. coli O157:H7 [2]; [9]
  E. coli O157:H7 (log10 cfu/ml) at min: 0: <1.7 log10 cfu/ml
  E. coli O157:H7 (log10 cfu/ml) at min: 1: <1.7 log10 cfu/ml
  E. coli O157:H7 (log10 cfu/ml) at min: 2: <1.7 log10 cfu/ml
  E. coli O157:H7 (log10 cfu/ml) at min: 5: <1.7 log10 cfu/ml
  E. coli O157:H7 (log10 cfu/ml) at min: 10: <1.7 log10 cfu/ml
  E. coli O157:H7 (log10 cfu/ml) at min: 20: <1.7 log10 cfu/ml
E. coli O157:H7 [2]; ozone 22-24 ppm at 5° C. or 8-12 ppm at 21° C., rumen content at ratios of 50:1 and higher
  effect on killing E. coli O157:H7: minimal effect
